# Test results from article PMC7546004, “Targeting BCL10 by small peptides for the treatment of B cell lymphoma” (Theranostics, 2020).
# Square brackets hold non-standard residues; d marks the D form. Peptide text beside a SMILES is read from it.
# What was measured:
# TMD8 and SU-DHL4 cells [1] = assay: Apoptosis (annexin V / PI staining); assay type: cell-based; conditions: annexin V+/PI- plus annexin V+/PI+, 24 h; two independent experiments
# Procedure: ([…]); shBcl10 ([…] TGT […]). Lentivirus production using […]
# selected with puromycin (Invitrogen, A1113803) for 2 weeks. Log phase growing cells were seeded […]
# The number cells were measured by flow […]
# Cells were harvested and RNA was extracted and quantified. Synthesis of cDNA was performed […]
# QuantStudio 6 Flex (Applied Biosystems). RNA was normalized by β-Actin or GAPDH mRNA. The following quantitative PCR primers were used: […]
# hGAPDH-F: 5′-[…] T […]- 3’ […]
# hGAPDH-R: 5’-TACT T TAT […]-3’ […]
# hActin- F: 5’-[…]-3’ […]
# hActin- R: 5’-TC A […]-3’ […]
# hIL10- F: 5’-GGT […] TGTCTGA-3’ […]
# hIL10- R: 5’-AGGGAGT […]-3’ […]
# hIL6-R: 5’- […]-3 ’. […]
# hBcl10-F: 5’-[…] TAGAAA-3’ […]
# hBcl10-R: 5’-[…] T-3’ […]
# wa sh e d and lysed with RIPA buffer. Biotinylated BCL10 -P4 in cells were determined by immunoblotting with Streptavidin (Cell signaling, cat. #3999S).
# Apoptosis and cell cycle:
# 1:100 dilution for 15 min at room temperature in the dark. Signals from FL1 and FL3 channels were collected by MACSQuant analyzer and data were analyzed using FloJo (Ashland, OR). […]
# For cell cycle analysis, cells were washed twice with cold PBS and fixed in 70% ethanol overnight at 4°C. […] DNA content was measured by BD LSRII flow cytometer and data were analyzed in FloJo. […]
# All extracts were treated with DNase in column during RNA purification. RNA integrity was determined on an Agilent 2100 Bioanalyzer (Agilent Technologies, SantaClara, CA). […]
# TMD8 cells = assay type: cell-based, human
# Source text: GraphPad Prism software was used to determine GI50 values.
# BCL10 = target: T1, BCL10 (Homo sapiens, UniProt O95999); assay: In vitro BCL10 filamentation assay (negative-stain electron microscopy); assay type: biochemical; conditions: MBP-BCL10 and peptide premixed at 1:1 or 1:2 molar ratio, RT 30 min, then TEV cleavage
# T1 sequence (O95999 1-233): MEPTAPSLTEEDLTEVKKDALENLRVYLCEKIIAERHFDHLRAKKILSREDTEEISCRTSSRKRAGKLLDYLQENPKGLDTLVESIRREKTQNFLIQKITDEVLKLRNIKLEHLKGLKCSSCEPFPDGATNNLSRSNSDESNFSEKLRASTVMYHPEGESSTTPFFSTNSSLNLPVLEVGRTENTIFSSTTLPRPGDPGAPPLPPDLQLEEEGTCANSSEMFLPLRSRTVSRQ
# Procedure: MBP-BCL10 was expressed and purified as previously described. MBP-BCL10 and BCL10 peptide inhibitors were premixed at a 1:1 or 1:2 molar ratio at RT for 30 minutes before adding TEV to cleave the MBP tag. 5 μL of reaction mixture was applied to copper grids (Beijing Zhongjingkeyi Technology Co., Cat. No. BZ10024a), where it remained for 1 minute and was then negatively stained with 3% uranyl acetate for 1 minute, air-dried and imaged with a JEM-1230 TEM at 100 keV.
# TMD8 and SU-DHL4 cells [2] = assay: Cell cycle analysis (PI, flow cytometry); assay type: cell-based; conditions: 5 μM or 10 μM, 24 h; two independent experiments
# Procedure: For cell cycle analysis, cells were washed twice with cold PBS and fixed in 70% ethanol overnight at 4°C. Fixed cells were collected at 1800 rpm for 10 min and stained with PBS containing PI and DNase-free RNase A (Sigma-Aldrich) for 1h at room temperature in the dark. DNA content was measured by BD LSRII flow cytometer and data were analyzed in FloJo. […]
# Committee of Changhai Hospital, the Second Military Medical University.
# Immunohistochemistry (IHC)
# Formalin-fixed paraffin -embedded tumor xenografts were sectioned, dewaxed and submitted to antigen retrieval. The anti- Ki67 (proteintech, 27309-1) antibody was used at a 1:500 dilution.
# Biotin-conjugated secondary antibodies (MXB biotechnologies, KIT-9710) were used. Then avidin/biotin peroxidase (MXB biotechnologies, KIT-9710) was applied to the slides. Color was developed with diaminobenzoate chromogen peroxidase substrate (MXB biotechnologies, MAX007TM) and counterstained with […] (MXB biotechnologies, MAX007TM). Pictures were obtained using NanoZoomer-S60 microscope ([…]).
compound,measurement,setting,value
CC[C@@H](C)[C@@H](NC(=O)[C@@H](CCCCN)NC(=O)[C@H](NC(=O)[C@@H](Cc1c[nH]c2ccccc12)NC(=O)[C@@H](Cc1ccccc1)NC(=O)[C@@H](CCC(N)=O)NC(=O)[C@@H](CC(N)=O)NC(=O)[C@@H](CCCNC(=N)N)NC(=O)[C@@H](CCCNC(=N)N)NC(=O)[C@@H](CCSC)NC(=O)[C@@H](CCCCN)NC(=O)[C@@H](Cc1c[nH]c2ccccc12)NC(=O)[C@@H](CCCCN)NC(=O)[C@@H](CCCCN)NC(=O)[C@@H](CCCNC(=N)N)NC(=O)[C@H](NC(=O)[C@@H](CO)NC(=O)[C@@H](CO)NC(=O)[C@@H](CCCNC(=N)N)NC(=O)[C@@H](CCCCN)NC(=O)[C@@H](CCCNC(=N)N)NC(=O)[C@@H](C)NC(=O)CNC(=O)[C@@H](CCCCN)NC(=O)[C@@H](CC(C)C)NC(=O)[C@@H](CC(C)C)NC(=O)[C@@H](CC(=O)O)NC(=O)[C@@H](Cc1ccc(O)cc1)NC(=O)[C@@H](CC(C)C)NC(=O)[C@@H](CCC(N)=O)NC(=O)[C@H](N)CCC(=O)O)[C@H](C)O)[C@H](C)CC)C(=O)N[C@H](CCC(N)=O)C(=O)N[C@H](CCCNC(=N)N)C(=O)N[C@H](CC(=O)O)C(=O)O [DRI-BCL10-P4] (H-[dE][dQ][dL][dY][dD][dL][dL][dK]G[dA][dR][dK][dR][dS][dS][dT][dR][dK][dK][dW][dK][dM][dR][dR][dN][dQ][dF][dW][dI][dK][dI][dQ][dR][dD]-OH),apoptosis of TMD8 and SU-DHL4 cells,TMD8 and SU-DHL4 cells [1],induced apoptosis
same,GI50,TMD8 cells,11.9 ± 6.2 µM
same,BCL10 filament formation (EM),BCL10,effectively disrupted BCL10 filament formation
same,cell cycle profile of TMD8 and SU-DHL4 cells,TMD8 and SU-DHL4 cells [2],cell cycle arrest
